{"source": "patent US9206134B2", "about": "“Polymorphic forms of compounds as prolyl hydroxylase inhibitor, and uses thereof” (BEIJING BETTA PHARMACEUTICALS CO. LTD., priority 2011, dated 2015)", "key": {"[1]": {"assay": "Stability determination of crystal forms (competitive slurry in isopropyl acetate)", "type": "physicochemical", "details": "Forms IV and VI stirred together in isopropyl acetate solution of compound of Formula I, room temperature, 36 hrs; resulted crystal form purely Form VI", "experimental": "9.6 mg of the Crystalline Form IV and 1.97 mg of the Crystalline Form VI disclosed in this invention were then added into the solution and stirred at room temperature for 36 hrs. After centrifugation and drying, the resulted crystal form was determined to be purely the Crystalline Form VI."}, "[2]": {"test_system": "Erythropoietin (EPO)", "assay": "Erythropoietin (EPO) induction in normal mice", "type": "in vivo", "details": "male C57BL/6 mice, oral suspension in 0.5% CMC, serum 6 hours after dosing", "experimental": "Eight-week-old male C57BL/6 mice were dosed orally with a suspension of one crystal form of the compound in 0.5% CMC at 20, 60 and 100 mg/kg. Blood samples were obtained from the orbital venous plexus 6 hours after dosing and serum was collected (see also, Robinson A, et al., Gastroenterology. 2008, 134:145-55; Hsieh M M, et al., Blood. 2007, 110:2140-7). Samples were analyzed for EPO by electrochemiluminescence-based immunoassay (MSD) according to manufacturer's instructions. The inducted EPOs when the Crystalline Form VI in this invention was used in suspension were determined to be around 6, 297 and above 300 folds over that of the vehicle group without induction."}}}
{"smiles": "Cc1nc(C(=O)NCC(=O)O)c(O)c2ccc(Oc3ccccc3)cc12", "note": "[Crystalline Form VI]", "values": [{"measurement": "thermodynamic stability of crystal form", "setting": "[1]", "value": "thermodynamically the most stable crystal form"}, {"measurement": "inducted EPO over that of the vehicle group", "setting": "[2]; 20 mg/kg", "value": "around 6 folds"}, {"measurement": "inducted EPO over that of the vehicle group", "setting": "[2]; 60 mg/kg", "value": "~297", "unit": "folds"}, {"measurement": "inducted EPO over that of the vehicle group", "setting": "[2]; 100 mg/kg", "value": "above 300 folds"}]}
